Like-named read-outs stand apart in the source and are kept apart here. Each block holds one molecule with its values, some of them ahead of it.
Assays:
LDL-C = conditions: cited from earlier work
[1] = target: microsomal triglyceride transfer protein (MTP) (Homo sapiens, UniProt P55157); conditions: for mean percent change in apoB / mean percent change in non-HDL cholesterol / mean percent change in total cholesterol: 6 hoFH subjects
Method: This theory was applied in designing a study investigating the safety, tolerability and efficacy of BMS-201038 in patients with homozygous familial hypercholesterolemia (hoFH).
Subjects received once daily dosing of 4 doses of BMS-201038 (0.03, 0.1, 0.3 and 1.0 mg/kg) for 4 weeks at each dose. We chose an initial low dose (0.03 mg/kg) that while not expecting to be efficacious, would be a dose that would be expected to be safe and well tolerated (˜2.1 mg in the 70 kg person) The remaining three doses were chosen by calculating ½ log units of the previous dose.

apoB secretion = conditions: cell culture studies; read-out: IC50 for inhibition of apoB secretion; cited from earlier work
apoAI secretion = conditions: cell culture studies; read-out: IC50 for inhibition of apoAI secretion; cited from earlier work
[2] = rats, cited from earlier work
[3] = dogs, six-month toxicity study, doses 0-10 mg/kg; cited from earlier work
cholesterol levels = conditions: cited from earlier work
[4] = system: low density lipoprotein cholesterol (LDL-C); conditions: cited from earlier work
[5] = 25 mg per day for 4 weeks, primary hypercholesterolemia, some patients; cited from earlier work
cholesterol = conditions: in vivo; cited from earlier work
[6] = 0.3 mg/kg once daily for 4 weeks (second highest dose)
[7] = 1.0 mg/kg once daily for 4 weeks (highest dose)
[8] = dose of 10 mg/kg, rabbits that lack a functional LDL receptor

Chain of microsomal triglyceride transfer protein (MTP) (P55157 19-894): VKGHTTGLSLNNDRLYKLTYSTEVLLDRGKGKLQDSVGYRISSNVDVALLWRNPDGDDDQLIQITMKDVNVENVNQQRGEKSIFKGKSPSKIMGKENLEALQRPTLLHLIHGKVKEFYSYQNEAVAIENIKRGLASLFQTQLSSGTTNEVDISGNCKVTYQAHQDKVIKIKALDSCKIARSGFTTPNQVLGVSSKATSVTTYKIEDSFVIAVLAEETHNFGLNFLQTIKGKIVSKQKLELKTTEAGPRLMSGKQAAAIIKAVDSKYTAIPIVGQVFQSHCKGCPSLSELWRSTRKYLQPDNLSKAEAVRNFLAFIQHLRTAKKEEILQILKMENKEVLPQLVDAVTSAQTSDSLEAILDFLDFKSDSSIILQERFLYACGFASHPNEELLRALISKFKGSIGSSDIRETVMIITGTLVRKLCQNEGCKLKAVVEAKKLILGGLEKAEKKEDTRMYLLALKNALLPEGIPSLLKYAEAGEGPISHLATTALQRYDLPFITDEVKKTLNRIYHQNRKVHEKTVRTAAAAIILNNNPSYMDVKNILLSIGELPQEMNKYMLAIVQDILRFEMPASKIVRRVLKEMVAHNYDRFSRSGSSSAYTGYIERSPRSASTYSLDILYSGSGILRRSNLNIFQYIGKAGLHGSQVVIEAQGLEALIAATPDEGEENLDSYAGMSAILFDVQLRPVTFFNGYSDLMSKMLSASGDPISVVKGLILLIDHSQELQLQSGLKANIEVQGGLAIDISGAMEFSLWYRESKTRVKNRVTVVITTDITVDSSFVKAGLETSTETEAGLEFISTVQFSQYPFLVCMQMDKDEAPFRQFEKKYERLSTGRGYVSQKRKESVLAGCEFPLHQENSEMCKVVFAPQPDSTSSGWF
Chain of microsomal triglyceride transfer protein (MTP) (P07237 18-508 partner): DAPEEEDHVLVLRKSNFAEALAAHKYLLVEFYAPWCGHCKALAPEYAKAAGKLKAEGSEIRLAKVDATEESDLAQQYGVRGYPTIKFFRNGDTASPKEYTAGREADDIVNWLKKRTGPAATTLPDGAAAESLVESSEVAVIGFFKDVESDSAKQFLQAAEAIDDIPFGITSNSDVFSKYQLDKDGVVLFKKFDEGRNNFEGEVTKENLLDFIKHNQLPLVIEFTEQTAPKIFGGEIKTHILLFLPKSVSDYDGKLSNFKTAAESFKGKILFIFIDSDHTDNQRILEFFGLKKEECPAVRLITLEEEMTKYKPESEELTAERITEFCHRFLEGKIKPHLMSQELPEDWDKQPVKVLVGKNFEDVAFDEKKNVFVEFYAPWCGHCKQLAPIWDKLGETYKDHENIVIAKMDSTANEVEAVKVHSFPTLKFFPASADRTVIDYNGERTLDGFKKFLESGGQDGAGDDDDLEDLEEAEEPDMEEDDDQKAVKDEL

SMILES: CC(C)c1c(C(=O)Nc2ccccc2)c(-c2ccccc2)c(-c2ccc(F)cc2)n1CC[C@@H](O)C[C@@H](O)CC(=O)O [atorvastatin]
mean LDL-C reduction (LDL-C; genotype-confirmed hoFH, maximal dose of statins 80 mg/day): about 5.5%

mean percent change in apoB [1, 6]: −15±16% | mean percent change in non-HDL cholesterol [1, 6]: −31±9% | mean percent change in total cholesterol [1, 6]: −30±9% | mean percent change in apoB [1, 7]: −55±13% | mean percent change in non-HDL cholesterol [1, 7]: −60±8.8% | mean percent change in total cholesterol [1, 7]: −58±8.5% | increase in hepatic fat by NMRS from baseline to 4 weeks on 1 mg/kg ([1]; human, in vivo, 4 weeks): 3-37%
SMILES: O=C(NC1CCN(CCCCC2(C(=O)NCC(F)(F)F)c3ccccc3-c3ccccc32)CC1)c1ccccc1-c1ccc(C(F)(F)F)cc1 [BMS-201038, N-(2,2,2-Trifluorethyl)-9-[4-[4-[[[4′-(trifluoromethyl) [1,1′biphenyl]-2-Y1]carbonyl]amino]-1-piperidinyl]butyl]9H-fluorene-9-carboxamide, methanesulfonate]
IC50 (apoB secretion): 0.0008 µM | IC50 (apoAI secretion): 6.5 µM | doses associated with subacute inflammation and single-cell necrosis of hepatocytes and histiocytosis (phospholipidosis) in the lungs ([2]; six-month toxicity study, doses 0-20 mg/kg): ≥ 0.2 mg/kg | hepatic accumulation of lipids at the end of a 1-month washout period [2]: reversed | subacute inflammation and single-cell necrosis of hepatocytes and histiocytosis (phospholipidosis) in the lungs [3]: not in dogs | LDL cholesterol reduction (cholesterol levels; 10 mg/kg, animal study by Wetterau and colleagues): greater than 80% | cholesterol levels (cholesterol levels; [8]): essentially normalized | plasma AST or ALT (cholesterol levels; [8]): no alteration | ED50 value for lowering cholesterol (cholesterol levels; rabbits that lack a functional LDL receptor): 1.9 mg/kg | reduction of low density lipoprotein cholesterol (LDL-C) ([4]; healthy volunteers with hypercholesterolemia): up to 65% | doses at which gastrointestinal side effects/steatorrhea, elevation of serum transaminases and hepatic fat accumulation were primarily observed ([4]; human clinical development): ≥ 25 mg/day | gastrointestinal (GI) symptoms (steatorrhea, abdominal cramping and distention) [5]: clinically significant

SMILES: O=C1[C@H](CC[C@H](O)c2ccc(F)cc2)[C@@H](c2ccc(O)cc2)N1c1ccc(F)cc1 [ezetimibe]
total reduction of LDL-C levels (LDL-C; ezetimibe 10 mg/day added to atorvastatin or simvastatin 80 mg/day, hoFH): 27% | reduction of LDL cholesterol (cholesterol): about 18%

Reference: patent US11554113B2, “Methods for treating disorders or diseases associated with hyperlipidemia and hypercholesterolemia while minimizing side-effects” (The Trustees of the University of Pennsylvania, priority 2004, dated 2023)
